Experimental findings from the NIST ThermoML archive (doi:10.1021/je700139p) are described below.

The structures appear in SMILES notation. ± gives the expanded uncertainty stated by the source.

This series in a line: activity coefficient (dimensionless); of the first substance listed, at infinite dilution; xn = mol fraction of the nth substance listed. The conditions noted are these: 101 kPa, Liquid, Chromatography, x1 = 0.

Regarding `CCCCCCCCCC` [decane] + O=S1(=O)CCCC1, the activity coefficient by setting is: (333.15 K) 147 ± 10; (343.15 K) 126 ± 8.6; (353.15 K) 107 ± 7.3; (363.15 K) 92.2 ± 6.3; (373.15 K) 79.8 ± 5.5.

As to `Cc1ccc(C)cc1` [1,4-dimethylbenzene] + O=S1(=O)CCCC1, the activity coefficient worked out at 5.51 ± 0.38 (333.15 K); 5.25 ± 0.36 (343.15 K); 5.11 ± 0.35 (353.15 K); 4.88 ± 0.33 (363.15 K); 4.76 ± 0.32 (373.15 K).

`CCc1ccccc1` [ethylbenzene] + O=S1(=O)CCCC1: the activity coefficient by setting is: (333.15 K) 4.82 ± 0.33; (343.15 K) 4.65 ± 0.32; (353.15 K) 4.48 ± 0.3; (363.15 K) 4.35 ± 0.3; (373.15 K) 4.26 ± 0.29.

Take `Cc1ccccc1C` [1,2-dimethylbenzene] + O=S1(=O)CCCC1: the activity coefficient is, setting by setting: (333.15 K) 4.57 ± 0.31; (343.15 K) 4.39 ± 0.3; (353.15 K) 4.28 ± 0.29; (363.15 K) 4.17 ± 0.28; (373.15 K) 4.04 ± 0.28.

For the compound `CCCCCCC` [heptane] + O=S1(=O)CCCC1, the activity coefficient worked out at 60.3 ± 4.1 (333.15 K); 53.1 ± 3.6 (343.15 K); 47.6 ± 3.3 (353.15 K); 41.2 ± 2.8 (363.15 K); 38.5 ± 2.6 (373.15 K).

Regarding `Cc1ccccc1` [toluene] + O=S1(=O)CCCC1, the activity coefficient (333.15 K) was 3.46 ± 0.23; the activity coefficient (343.15 K) came to 3.38 ± 0.23; the activity coefficient (353.15 K) was 3.29 ± 0.22; the activity coefficient (363.15 K) came out at 3.23 ± 0.22; the activity coefficient (373.15 K) is 3.2 ± 0.22.

For the compound `CCCCCCCC` [octane] + O=S1(=O)CCCC1, the activity coefficient by setting is: (333.15 K) 80.7 ± 5.5; (343.15 K) 70.5 ± 4.8; (353.15 K) 61.7 ± 4.2; (363.15 K) 54.3 ± 3.7; (373.15 K) 48.6 ± 3.3.

On to `Cc1cccc(C)c1` [1,3-dimethylbenzene] + O=S1(=O)CCCC1, for which the activity coefficient (333.15 K) was 5.35 ± 0.36; the activity coefficient (343.15 K) was 5.13 ± 0.35; the activity coefficient (353.15 K) is 4.98 ± 0.34; the activity coefficient (363.15 K) is 4.77 ± 0.33; the activity coefficient (373.15 K) amounted to 4.65 ± 0.32.

On to `c1ccccc1` [benzene] + O=S1(=O)CCCC1, for which the activity coefficient (333.15 K) was found to be 2.32 ± 0.16; the activity coefficient (343.15 K) stood at 2.3 ± 0.16; the activity coefficient (353.15 K) is 2.28 ± 0.15; the activity coefficient (363.15 K) is 2.26 ± 0.15; the activity coefficient (373.15 K) is 2.25 ± 0.15.
